In patent US12370143B2, “Compound or salt thereof and lipid particles” (FUJIFILM Corporation, priority 2018, dated 2025):
pIC50: −log10 of the molar value.

Tests used:
[1] = Particle size of nucleic acid lipid particles (FVII-siRNA); assay type: physicochemical
How it was run: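 Lipid particles formed by micromixing ethanolic ionizable lipid/DSPC/cholesterol/DMG-PEG2000 (50/10/38.5/1.5 mol) with siRNA in pH 4 acetate buffer (3:1 water:oil), diluted with PBS and dialysed against PBS.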

[2] = Nucleic acid encapsulation rate of nucleic acid lipid particles (FVII-siRNA); assay type: physicochemical
How it was run: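 Total nucleic acid was measured by adding 30 μL of 3 mol/L sodium acetate and 9 μL of glycogen to 60 μL of FVII-siRNA lipid particles, then precipitating with 1.5 mL ethanol, centrifuging, air-drying, redissolving in water, and reading on a Nanodrop. Outer-phase nucleic acid came from a RiboGreen assay (ex 485 nm, em 535 nm) on samples diluted 10,000× in 1×TE. Encapsulation (%) = (total − outer)/total × 100.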

[3] = tested on: Factor VII (FVII) protein; assay: Measurement of Factor VII (FVII) protein in mouse plasma after FVII-siRNA lipid particles; assay type: in vivo, C57BL6/J mice; details: 0.1 mg/kg caudal vein, plasma 24 hours after administration, PBS group = 100%
How it was run: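 C57BL6/J mice (n=3) received FVII-siRNA nucleic acid lipid particles at 0.1 mg/kg into the tail vein; controls got PBS. Each value is the percentage of the PBS-group FVII level.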

[4] = Particle size of nucleic acid lipid particles (Luc2-siRNA); assay type: physicochemical; details: compound/DSPC/cholesterol/DMG-PEG2000 50/10/38.5/1.5
How it was run: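 Lipid particles formed from oil phase (test lipid/DSPC/cholesterol/DMG-PEG2000, 50/10/38.5/1.5 molar, 20 mmol/L total in ethanol) micromixed 1:3 with Luc2-siRNA in pH 4 acetate buffer (19.7 μmol/L); siRNA/lipid 339 mol/mol, PBS-diluted and dialyzed. Size measured on ELS-Z2 dynamic light scattering.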

[5] = Encapsulation rate of siRNA in nucleic acid lipid particles (Luc2-siRNA); assay type: physicochemical; details: compound/DSPC/cholesterol/DMG-PEG2000 50/10/38.5/1.5
How it was run: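 Encapsulation rate was calculated as (total − outer-phase siRNA)/total ×100. Total siRNA was quantified spectrophotometrically after lipid-dissolving ethanol precipitation, and unencapsulated siRNA by RiboGreen in TE (ex 485/em 535 nm). The particles were test lipid/DSPC/cholesterol/DMG-PEG2000 at 50/10/38.5/1.5, formed by microfluidic mixing with Luc2-siRNA at pH 4 and dialyzed against PBS.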

[6] = tested on: DMS273 cells constantly expressing Luc; assay: Target reporter protein (Luc) knockdown in cell, reporter protein assay; assay type: cell-based; details: Homo sapiens, DMS-273; Luc2-siRNA lipid particles using the compound; siRNA 0.1 to 100 nmol/L; concentration at which Luc expression is knocked down to 50%; read-out: IC50
How it was run: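 Nucleic acid lipid particles added at final 0.1 to 100 nmol/L to DMS273 human SCLC cells stably expressing Luc2, 24 hr exposure then 24 hr further culture after medium change. Luc quantified by Steady Glo luminescence after viable cell count; knockdown efficiency calculated and IC50 taken as concentration giving 50% Luc reduction.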

CCCCCCCCC(CCCCCC)COC(=O)CCCCCCC(CCCCCC)OC(=O)OCCN(CCN(CC)CC)C(C)C (stereo not drawn) [Example 94, 2-Hexyldecyl 3-ethyl-12-hexyl-6-isopropyl-10-oxo-9,11-dioxa-3,6-diazanonadecan-19-oate]
Particle size (nm) [1]: 86.1 nm
Nucleic acid encapsulation rate [2]: 75%
Relative amount of FVII protein (%) [3]: 8%
Particle size (nm) [4]: 72.7 nm
Nucleic acid encapsulation rate [5]: 76%
pIC50 [6]: 7.41

CCCCCCCCC(CCCCCC)COC(=O)CCCCCCCCC(CCCCCC)OC(=O)OCCN(CCOC(=O)CCCCC)CCN(CC)CC (stereo not drawn) [Example 100, 2-Hexyldecyl 3-ethyl-6-(2-(hexanoyloxy)ethyl)-12-hexyl-10-oxo-9,11-dioxa-3,6-diazahenicosan-21-oate]
Particle size (nm) [1]: 85.1 nm
Nucleic acid encapsulation rate [2]: 80%
Relative amount of FVII protein (%) [3]: 2%
Particle size (nm) [4]: 76.7 nm
Nucleic acid encapsulation rate [5]: 82%
pIC50 [6]: 7.59

CCCCCCCCC(=O)OCCN(CCOC(=O)OC(CCCCCC)CCCCCCCCC(=O)OCC(CCCC)CCCCCC)CCN(CC)CC (stereo not drawn) [Example 103, 2-Butyloctyl 3-ethyl-12-hexyl-6-(2-(nonanoyloxy)ethyl)-10-oxo-9,11-dioxa-3,6-diazahenicosan-21-oate]
Particle size (nm) [1]: 69.8 nm
Nucleic acid encapsulation rate [2]: 79%
Relative amount of FVII protein (%) [3]: 2%
Particle size (nm) [4]: 64.3 nm
Nucleic acid encapsulation rate [5]: 80%
pIC50 [6]: 7.85

CCCCCCC(=O)OCCN(CCOC(=O)OC(CCCCCC)CCCCCCCCC(=O)OCC(CCCC)CCCCCC)CCN(CC)CC (stereo not drawn) [Example 104, 2-Butyloctyl 3-ethyl-6-(2-(heptanoyloxy)ethyl)-12-hexyl-10-oxo-9,11-dioxa-3,6-diazahenicosan-21-oate]
Particle size (nm) [1]: 85.8 nm
Nucleic acid encapsulation rate [2]: 69%
Relative amount of FVII protein (%) [3]: 1%
Particle size (nm) [4]: 76.6 nm
Nucleic acid encapsulation rate [5]: 81%
pIC50 [6]: 8.40

CCCCCCC(CCCC)COC(=O)CCCCCCCCC(CCCCCC)OC(=O)OCCN(CCOC(=O)CCCCC)CCN(CC)CC (stereo not drawn) [Example 105, 2-Butyloctyl 3-ethyl-6-(2-(hexanoyloxy)ethyl)-12-hexyl-10-oxo-9,11-dioxa-3,6-diazahenicosan-21-oate]
Particle size (nm) [1]: 102.4 nm
Nucleic acid encapsulation rate [2]: 73%
Relative amount of FVII protein (%) [3]: 7%
Particle size (nm) [4]: 100 nm
Nucleic acid encapsulation rate [5]: 81%
pIC50 [6]: 7.55

CCCCCCCCCCCC(=O)OCCN(CCOC(=O)OC(CCCCCC)CCCC(=O)OCC(CCCC)CCCCCC)CCN(CC)CC (stereo not drawn) [Example 106, 2-Butyloctyl 6-(2-(dodecanoyloxy)ethyl)-3-ethyl-12-hexyl-10-oxo-9,11-dioxa-3,6-diazahexadecan-16-oate]
Particle size (nm) [1]: 66.4 nm
Nucleic acid encapsulation rate [2]: 85%
Relative amount of FVII protein (%) [3]: 2%
Particle size (nm) [4]: 62.4 nm
Nucleic acid encapsulation rate [5]: 80%
pIC50 [6]: 7.43

CCCCCCCCCC(=O)OCCN(CCOC(=O)OC(CCCCCC)CCCC(=O)OCC(CCCC)CCCCCC)CCN(CC)CC (stereo not drawn) [Example 107, 2-Butyloctyl 6-(2-(decanoyloxy)ethyl)-3-ethyl-12-hexyl-10-oxo-9,11-dioxa-3,6-diazahexadecan-16-oate]
Particle size (nm) [1]: 70.6 nm
Nucleic acid encapsulation rate [2]: 83%
Relative amount of FVII protein (%) [3]: 1%
Particle size (nm) [4]: 64.8 nm
Nucleic acid encapsulation rate [5]: 78%
pIC50 [6]: 7.64

CCCCCCCCCCCC(=O)OCCN(CCOC(=O)OC(CCCCCC)CCCC(=O)OCC(CCCCCC)CCCCCCCC)CCN(CC)CC (stereo not drawn) [Example 109, 2-Hexyldecyl 6-(2-(dodecanoyloxy)ethyl)-3-ethyl-12-hexyl-10-oxo-9,11-dioxa-3,6-diazahexadecan-16-oate]
Particle size (nm) [1]: 62.7 nm
Nucleic acid encapsulation rate [2]: 86%
Relative amount of FVII protein (%) [3]: 3%
Particle size (nm) [4]: 65.7 nm
Nucleic acid encapsulation rate [5]: 91%
pIC50 [6]: 7.59

CCCCCCCCCC(=O)OCCN(CCOC(=O)OC(CCCCCC)CCCC(=O)OCC(CCCCCC)CCCCCCCC)CCN(CC)CC (stereo not drawn) [Example 110, 2-Hexyldecyl 6-(2-(decanoyloxy)ethyl)-3-ethyl-12-hexyl-10-oxo-9,11-dioxa-3,6-diazahexadecan-16-oate]
Particle size (nm) [1]: 66.1 nm
Nucleic acid encapsulation rate [2]: 85%
Relative amount of FVII protein (%) [3]: 2%
Particle size (nm) [4]: 60.7 nm
Nucleic acid encapsulation rate [5]: 87%
pIC50 [6]: 7.77

CCCCCCCCC(CCCCCC)COC(=O)CCCC(CCCCCC)OC(=O)OCCN(CCOC(=O)CCCCCCC)CCN(CC)CC (stereo not drawn) [Example 111, 2-Hexyldecyl 3-ethyl-12-hexyl-6-(2-(octanoyloxy)ethyl)-10-oxo-9,11-dioxa-3,6-diazahexadecan-16-oate]
Particle size (nm) [1]: 70.5 nm
Nucleic acid encapsulation rate [2]: 88%
Relative amount of FVII protein (%) [3]: 2%
Particle size (nm) [4]: 63.9 nm
Nucleic acid encapsulation rate [5]: 93%
pIC50 [6]: 7.38

CCCCCCCCCCC(CCCCCCCC)COC(=O)CCCC(CCCCCC)OC(=O)OCCN(CCN(CC)CC)C(C)C (stereo not drawn) [Example 112, 2-Octyldodecyl 3-ethyl-12-hexyl-6-isopropyl-10-oxo-9,11-dioxa-3,6-diazahexadecan-16-oate]
Particle size (nm) [1]: 74.2 nm
Nucleic acid encapsulation rate [2]: 100%
Relative amount of FVII protein (%) [3]: 3%
Particle size (nm) [4]: 68.6 nm
Nucleic acid encapsulation rate [5]: 79%
pIC50 [6]: 7.74

CCCCCCCCCCCCC(CCCCCCCCCC)COC(=O)CCCC(CCCCCC)OC(=O)OCCN(CCN(CC)CC)C(C)C (stereo not drawn) [Example 113, 2-Decyltetradecyl 3-ethyl-12-hexyl-6-isopropyl-10-oxo-9,11-dioxa-3,6-diazahexadecan-16-oate]
Particle size (nm) [1]: 66.1 nm
Nucleic acid encapsulation rate [2]: 100%
Relative amount of FVII protein (%) [3]: 4%
Particle size (nm) [4]: 67.8 nm
Nucleic acid encapsulation rate [5]: 82%
pIC50 [6]: 7.68

CCCCCCCC/C=C\CCCCCCCC(=O)OCCN(CCOC(=O)OC(CCCCCC)CCCCCCCCC(=O)OCC(CCCCCC)CCCCCCCC)CCN(CC)CC (stereo not drawn) [Example 118, 2-Hexyldecyl 3-ethyl-12-hexyl-6-(2-(oleoyloxy)ethyl)-10-oxo-9,11-dioxa-3,6-diazahenicosan-21-oate]
Particle size (nm) [1]: 80.5 nm
Nucleic acid encapsulation rate [2]: 64%
Relative amount of FVII protein (%) [3]: 9%
Particle size (nm) [4]: 93.6 nm
Nucleic acid encapsulation rate [5]: 90%
pIC50 [6]: 7.46

CCCCCCCC/C=C\CCCCCCCC(=O)OCCN(CCOC(=O)OC(CCCCCC)CCCC(=O)OCC(CCCC)CCCCCC)CCN(CC)CC (stereo not drawn) [Example 119, 2-Butyloctyl 3-ethyl-12-hexyl-6-(2-(oleoyloxy)ethyl)-10-oxo-9,11-dioxa-3,6-diazahexadecan-16-oate]
Particle size (nm) [1]: 66.3 nm
Nucleic acid encapsulation rate [2]: 69%
Relative amount of FVII protein (%) [3]: 5%
Particle size (nm) [4]: 67.8 nm
Nucleic acid encapsulation rate [5]: 89%
pIC50 [6]: 7.51

CCCCCCCC/C=C\CCCCCCCC(=O)OCCN(CCOC(=O)OC(CCCCCC)CCCC(=O)OCC(CCCCCC)CCCCCCCC)CCN(CC)CC (stereo not drawn) [Example 120, 2-Hexyldecyl 3-ethyl-12-hexyl-6-(2-(oleoyloxy)ethyl)-10-oxo-9,11-dioxa-3,6-diazahexadecan-16-oate]
Particle size (nm) [1]: 68.1 nm
Nucleic acid encapsulation rate [2]: 66%
Relative amount of FVII protein (%) [3]: 6%
Particle size (nm) [4]: 66.5 nm
Nucleic acid encapsulation rate [5]: 90%
pIC50 [6]: 7.57
